Experimental findings from US7910600B2, “Therapeutic kinase modulators” (Cylene Pharmaceuticals, Inc., priority 2007, dated 2011) are described below.

One experiment has as its system K562. Briefly: Cell proliferation assay (Alamar Blue), K562. It is filed as cell-based. The note with it: Homo sapiens; K562 cell line. The protocol:
(§1) A representative cell-proliferation assay protocol using Alamar Blue dye (stored at 4° C., use 20 ul per well) is described hereafter.
(§2) 96-Well Plate Setup and Compound Treatment
(§3) • a. Split and trypsinize cells. • b. Count cells using hemocytometer. • c. Plate 4,000-5,000 cells per well in 100 μl of medium and seed into a 96-well plate according to the following plate layout. Add cell culture medium only to wells B10 to B12. Wells B1 to B9 have cells but no compound added.
(§4) • d. Add 100 μl of 2× drug dilution to each well in a concentration shown in the plate layout above. At the same time, add 100 μl of media into the control wells (wells B10 to B12). Total volume is 200 μl/well. • e. Incubate four (4) days at 37° C., 5% CO2 in a humidified incubator. • f. Add 20 μl Alamar Blue reagent to each well. • g. Incubate for four (4) hours at 37° C., 5% CO2 in a humidified incubator. • h. Record fluorescence at an excitation wavelength of 544 nm and emission wavelength of 590 nm using a microplate reader.
(§5) In the assays, cells are cultured with a test compound for approximately four days, the dye is then added to the cells and fluorescence of […] dye is detected after approximately four hours. Different types of cells can be utilized in the assays (e.g., HCT-116 human colorectal carcinoma cells, PC-3 human prostatic cancer cells and MiaPaca human pancreatic carcinoma cells).

Experiment [1] has as its system MiaPaca human pancreatic carcinoma cells. As to the kind of experiment: Cell proliferation assay (Alamar Blue), MiaPaCa. In kind it is cell-based. The following applies: MIA PaCa-2, MiaPaCa cell line. On the procedure: as §1, §2, §3, §4, §5
Experiment [2] deals with HCT-116 human colorectal carcinoma cells. As to the kind of experiment: Cell proliferation assay (Alamar Blue), HCT-116. In kind it is cell-based. The note with it: HCT-116 cell line. The protocol: as §1, §2, §3, §4, §5
The next experiment has as its system MV-4-11. As to the kind of experiment: Cell proliferation assay (Alamar Blue), MV-4-11. The note with it: Homo sapiens, MV4-11; MV-4-11 cell line. It is filed as cell-based. On the procedure:
as §1, §2, §3, §4, §5

Another experiment has as its target T1, recombinant human CK2 (Homo sapiens, UniProt P68400).
T1 construct: purchased Upstate
As to the kind of experiment: Cell-free CK2 assay. The following applies: for inhibition at 0.5 µM: read-out: CK2: % inh 500 nM. In kind it is biochemical. On the procedure:
Modulatory activity of compounds described herein is assessed in vitro in cell-free CK2 assays. These assays are described hereafter.
Test compounds in aqueous solution are added at a volume of 10 microliters, to a reaction mixture comprising 10 microliters Assay Dilution Buffer (ADB; 20mM MOPS, pH 7.2, 25 mM beta-glycerolphosphate, 5 mM EGTA, 1 mM sodium orthovanadate and 1 mM dithiothreitol), 10 microliters of substrate peptide (RRRDDDSDDD (SEQ ID NO:4), dissolved in ADB at a concentration of 1 mM), 10 microliters of recombinant human CK2 (25 ng dissolved in ADB; Upstate). Reactions are initiated by the addition of 10 microliters of ATP Solution (90% 75 mM MgC12, 75 micromolar ATP dissolved in ADB; 10% [γ-^33P]ATP (stock 1 mCi/100 μl; 3000 Ci/mmol (Perkin Elmer) and maintained for 10 minutes at 30 degrees C. The reactions are quenched with 100 microliters of 0.75% phosphoric acid, then transferred to and filtered through a phosphocellulose filter plate (Millipore). After washing each well 5 times with 0.75% phosphoric acid, the plate is dried under vacuum for 5 min and, following the addition of 15 ul of scintillation fluid to each well, the residual radioactivity is measured using a Wallac […].

For experiment [3], the system named is PC-3 human prostatic cancer cells. As to the kind of experiment: Cell proliferation assay (Alamar Blue), PC3. The following applies: PC3 cell line. In kind it is cell-based. On the procedure:
as §1, §2, §3, §4, §5

For the next experiment, the system named is PanC1. Briefly: Cell proliferation assay (Alamar Blue), PanC1. It is filed as cell-based. The note with it: Homo sapiens, PANC-1; PanC1 cell line. The protocol:
as §1, §2, §3, §4, §5

In the next experiment the test system is MDA-MB231. As to the kind of experiment: Cell proliferation assay (Alamar Blue), MDA-MB231. It is filed as cell-based. The following applies: Homo sapiens, MDA-MB-231; MDA-MB231 cell line. On the procedure: as §1, §2, §3, §4, §5
In another experiment the test system is Jurkat. As to the kind of experiment: Cell proliferation assay (Alamar Blue), Jurkat. The following applies: Homo sapiens; Jurkat cell line. In kind it is cell-based. On the procedure: as §1, §2, §3, §4, §5
A further experiment relates to BxPC3. Briefly: Cell proliferation assay (Alamar Blue), BxPC3. It is filed as cell-based. The note with it: Homo sapiens, BXPC-3; BxPC3 cell line; read-out: Bx-PC3. On the procedure:
as §1, §2, §3, §4, §5

Bounds are passed on as bounds.

T1 sequence (P68400 whole entry): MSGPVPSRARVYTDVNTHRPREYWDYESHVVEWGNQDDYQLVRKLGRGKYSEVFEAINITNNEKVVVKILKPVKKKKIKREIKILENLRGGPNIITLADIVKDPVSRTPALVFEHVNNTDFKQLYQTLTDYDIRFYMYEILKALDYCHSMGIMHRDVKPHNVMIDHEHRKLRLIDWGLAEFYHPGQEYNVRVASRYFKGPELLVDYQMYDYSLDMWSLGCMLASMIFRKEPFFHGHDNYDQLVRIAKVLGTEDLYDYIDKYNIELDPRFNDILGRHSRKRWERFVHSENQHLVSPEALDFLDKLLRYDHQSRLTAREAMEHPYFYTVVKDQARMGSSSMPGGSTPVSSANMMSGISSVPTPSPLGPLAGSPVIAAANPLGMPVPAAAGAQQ
T1 sequence (P67870 whole entry partner): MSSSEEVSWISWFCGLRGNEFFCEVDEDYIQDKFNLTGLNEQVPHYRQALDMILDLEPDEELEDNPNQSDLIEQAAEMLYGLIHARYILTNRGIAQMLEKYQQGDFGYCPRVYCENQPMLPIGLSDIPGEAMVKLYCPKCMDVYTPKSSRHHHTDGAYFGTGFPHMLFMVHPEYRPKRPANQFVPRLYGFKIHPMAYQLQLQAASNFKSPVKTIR

In the case of `CN1CCN(C(=O)c2ccc3c(c2)nc(-c2cccc(N)c2)c2ccncc23)CC1`, the IC50 (in the experiment on K562; in experiment [1]; in experiment [2]; in the experiment on MV-4-11; in experiment [3]) was over 10 µM each time. Besides, the inhibition at 0.5 µM at recombinant human CK2 came out at 19%.

For the compound `CN1CCCCC1CNC(=O)c1ccc2c(c1)nc(-c1cccc(N)c1)c1ccncc12` (centres unmarked), the IC50 (in the experiment with K562; in [1]; in experiment [2]; in the experiment on MV-4-11; in experiment [3]) was over 10 µM in each case. Besides, the inhibition at 0.5 µM on recombinant human CK2 turned out to be 9%.

On to `NC(=O)c1ccc2c(c1)nc(-c1ccccc1)c1nc(NC3CC3)ncc12`, for which the IC50 with PanC1 worked out at 25.9 µM; in [1] it was 5.2 µM; in experiment [2] it was 1.1 µM; with MDA-MB231, 35.7 µM; in the experiment with Jurkat, 0.5 µM; in the experiment with BxPC3, 1.1 µM. The inhibition at 0.5 µM at recombinant human CK2 is 45%.

Turning to `COC(=O)c1ccc2c(c1)nc(-c1cnn(C)c1)c1nc(NC3CC3)ncc12`, the IC50 in the experiment with PanC1 is 1.4 µM; in [1], 0.6 µM; in [2], over 10 µM; in the experiment on MDA-MB231, 17.2 µM; in the experiment on Jurkat, over 30 µM; in the experiment on BxPC3 it was over 30 µM. Moreover, at recombinant human CK2, the inhibition at 0.5 µM is 10%.

Regarding `Cn1cc(-c2nc3cc(C(=O)NC4CC4)ccc3c3cnc(NC4CC4)nc23)cn1`, the IC50 with PanC1 was over 30 µM; in experiment [1], 2.8 µM; in experiment [2], 4.3 µM; with MDA-MB231, over 30 µM; in the experiment on Jurkat it was 1.6 µM; in the experiment on BxPC3, 5.9 µM. For the same compound, the inhibition at 0.5 µM on recombinant human CK2 is 0%.

For the compound `O=C(O)c1ccc2c(c1)nc(-c1cccc(Cl)c1)c1ccncc12`, the IC50 with K562 was 0.9 µM; in [1], over 10 µM; in experiment [2], over 10 µM; in the experiment with MV-4-11 it was over 10 µM; at recombinant human CK2 it was 0.03 µM; in the experiment on MDA-MB231 it was over 10 µM. In addition, the IC50 (in the experiment on BxPC3; in [3]) was over 10 µM in each case. Moreover, at recombinant human CK2, the inhibition at 0.5 µM was 95%.

On to `Cc1ccccc1-c1nc2cc(C(=O)O)ccc2c2cnccc12`, for which the IC50 (in the experiment with K562; in experiment [1]; in [2]; in experiment [3]) was over 10 µM each time. The inhibition at 0.5 µM at recombinant human CK2 was 76%.

For the compound `COc1cccc(F)c1-c1nc2cc(C(=O)O)ccc2c2cnccc12`, the IC50 (in the experiment on K562; in experiment [1]; in experiment [2]; in experiment [3]) was over 10 µM throughout. For the same compound, the inhibition at 0.5 µM at recombinant human CK2 worked out at 68%.

Consider `O=C(O)c1ccc2c(c1)nc(-c1ccsc1)c1ccncc12`, for which the IC50 in the experiment on K562 is 0.2 µM; in experiment [1], over 10 µM; in [2], over 30 µM; with MV-4-11, 13.3 µM; on recombinant human CK2, 0.004 µM; in the experiment with MDA-MB231, over 10 µM. Besides, the IC50 (in the experiment with BxPC3; in experiment [3]) was over 10 µM each time. For the same compound, the inhibition at 0.5 µM at recombinant human CK2 turned out to be 98%.

As to `O=C(O)c1ccc2c(c1)nc(-c1ccc(Cl)cc1)c1ccncc12`, the IC50 with K562 was over 10 µM; in experiment [1], over 10 µM; in [2] it was over 10 µM; with MV-4-11, over 10 µM; on recombinant human CK2 it was 0.007 µM; in the experiment on MDA-MB231, over 10 µM. The IC50 (with BxPC3; in experiment [3]) was over 10 µM throughout. Besides, the inhibition at 0.5 µM at recombinant human CK2 came to 98%.

As to `Clc1ccc(-c2nc3ccccc3c3cnccc23)cc1`, the IC50 (with K562; in experiment [1]; in experiment [2]; in experiment [3]) was over 10 µM in each case. Further, the inhibition at 0.5 µM at recombinant human CK2 was -5%.

With `Cc1ccccc1-c1nc2ccccc2c2cnccc12`, the IC50 (in the experiment on K562; in experiment [1]; in experiment [2]; in [3]) was over 10 µM throughout. Moreover, the inhibition at 0.5 µM on recombinant human CK2 is -15%.

With `Clc1cccc(-c2nc3ccccc3c3cnccc23)c1`, the IC50 (in the experiment with K562; in experiment [1]; in experiment [2]; in experiment [3]) was over 10 µM each time. In addition, the inhibition at 0.5 µM on recombinant human CK2 was -17%.

For `O=C(O)c1ccc2c(c1)nc(-c1ccccc1F)c1ccncc12`, the IC50 in the experiment with K562 is over 10 µM; in experiment [1], over 10 µM; in experiment [2], over 10 µM; in the experiment with MV-4-11, over 10 µM; at recombinant human CK2 it was 0.106 µM; in experiment [3] it was 4.1 µM. Moreover, on recombinant human CK2, the inhibition at 0.5 µM turned out to be 97%.

In the case of `O=C(O)c1ccc2c(c1)nc(-c1cccc(F)c1)c1ccncc12`, the IC50 in the experiment on K562 was over 10 µM; in [1] it was over 10 µM; in experiment [2], over 10 µM; in the experiment on MV-4-11 it was 1.4 µM; on recombinant human CK2, 0.029 µM; in the experiment with MDA-MB231 it was 0.2 µM. The compound also returned an IC50 in [3] of over 10 µM. Further, the inhibition at 0.5 µM on recombinant human CK2 is 98%.

Regarding `O=C(O)c1ccc2c(c1)nc(-c1ccc(F)cc1)c1ccncc12`, the IC50 in the experiment on K562 is 1 µM; in [1], over 30 µM; in experiment [2], over 10 µM; in the experiment on MV-4-11 it was 7 µM; at recombinant human CK2, 0.033 µM; in experiment [3], over 10 µM. Moreover, the inhibition at 0.5 µM at recombinant human CK2 came to 98%.

Turning to `O=C(O)c1ccc2c(c1)nc(-c1ccccc1)c1nc(NC3CC3)ncc12` [3-(cyclopropylamino)-5-phenylpyrimido[4,5-c]quinoline-8-carboxylic acid], the IC50 with PanC1 came to 15.9 µM; in experiment [1], 3.7 µM; in experiment [2] it was 2.9 µM; on recombinant human CK2, 0.093 µM; with MDA-MB231 it was 11.1 µM; with Jurkat, 1.5 µM. Besides, the IC50 with BxPC3 came to 4.5 µM. For the same compound, at recombinant human CK2, the inhibition at 0.5 µM was found to be 99%.

In the case of `COC(=O)c1ccc2c(c1)nc(-c1cnn(C)c1)c1nc(SC)ncc12` [Methyl 5-(1-methyl-1H-pyrazol-4-yl)-3-(methylthio)pyrimido[4,5-c]quinoline-8-carboxylate], the IC50 in the experiment on PanC1 was over 62.5 µM; in [1], over 62.5 µM; in [2], over 10 µM; with MDA-MB231, over 62.5 µM; in the experiment with Jurkat it was 47.6 µM; in the experiment with BxPC3, over 62.5 µM. In addition, the inhibition at 0.5 µM on recombinant human CK2 was determined as 68%.

Take `O=C(NC1CC1)c1ccc2c(c1)nc(-c1ccccc1)c1nc(NC3CC3)ncc12` [N-cyclopropyl-3-(cyclopropylamino)-5-phenylpyrimido[4,5-c]quinoline-8-carboxamide]: the IC50 was 30.2 µM with PanC1; 58.4 µM in experiment [1]; 0.8 µM in experiment [2]; over 62.5 µM with MDA-MB231; 0.6 µM with Jurkat; 1.2 µM in the experiment on BxPC3. Further, on recombinant human CK2, the inhibition at 0.5 µM was -4%.

In the case of `COC(=O)c1ccc2c(c1)nc(-c1ccccc1)c1nc(NC3CC3)ncc12` [methyl 3-(cyclopropylamino)-5-phenylpyrimido[4,5-c]quinoline-8-carboxylate], the IC50 with PanC1 was found to be 8.7 µM; in [1], 3.2 µM; in experiment [2], 2.6 µM; with MDA-MB231, 3.4 µM; in the experiment with Jurkat, 1.1 µM; in the experiment with BxPC3, 1.9 µM. Besides, the inhibition at 0.5 µM at recombinant human CK2 was -27%.

In the case of `COC(=O)c1ccc2c(c1)nc(-c1ccccc1)c1nc(S(C)(=O)=O)ncc12` [methyl 3-(methylsulfonyl)-5-phenylpyrimido[4,5-c]quinoline-8-carboxylate], the IC50 in the experiment on PanC1 stood at 9.8 µM; in [1] it was 5.5 µM; in experiment [2], 2.7 µM; in the experiment with MDA-MB231, 6.4 µM; with Jurkat, 0.7 µM; with BxPC3 it was 10.6 µM. Besides, the inhibition at 0.5 µM on recombinant human CK2 is -18%.
